Laboratory results as given in publication PMC9823097, “Dysregulation of PRMT5 in chronic lymphocytic leukemia promotes progression with high risk of Richter’s transformation” (Nature Communications, 2023).

Columns and labels:
[1] = Pharmacokinetic study, oral gavage to CD-1 mice, blood analyzed by LC-MS/MS; format: in vivo; conditions: for peak plasma level: WT CD-1 mice; for DNAUC / blood concentration at time point 0.25 / blood concentration at time point 0.5 / blood concentration at time point 1 h / blood concentration at time point 2 h / blood concentration at time point 4 h / blood concentration at time point 8 h / blood concentration at time point 12 h / blood concentration at time point 24 h / AUC / AUC(0-t) / Cmax / MRT / Tmax / half-life: 1d-single dose, male CD-1 mice, fed, blood analysis; for DNAUC / AUC / AUC(0-t) / Cmax / MRT / Tmax / half-life: 0.5%CMC+0.5%Tween80; for AUC / AUC(0-t) / Cmax / MRT / Tmax / half-life: mouse, whole blood, po
Experimental: For in vitro assays, the compound was stored in a 10 mM solution in DMSO. […] […] Blood was collected at various time points after dosing into EDTA-K2 tubes, placed on ice, and stored at −80 °C prior to analysis by LC-MS/MS. For biochemical potency and selectivity, PRT382 was solubilized in 100% DMSO and diluted serially threefold. For assessment of selectivity, enzyme activity against a panel of 37 methyltransferases was evaluated using 3H-SAM as a radioligand probe with filtration binding. PRT382 was tested in duplicate at a final concentration of 10 µM. The percent of enzyme activity relative to DMSO control condition was determined for each enzyme.

[2] = test system: RL; test: Anti-proliferative activity, MTS assay, RL; format: cell-based; conditions: Homo sapiens, DLBCL, read-out: PRT382 IC50 (anti-proliferative)
Experimental: Cell proliferation was assessed via MTS (3-[4,5-dimethylthiazol-2-yl]-5-[3-carboxymethoxyphenyl]-2-[4-sulfophenyl]-2H-tetrazolium) assay (Sigma), using the tetrazolium dye […]. Cell apoptosis was evaluated by Annexin V-FITC or PE and propidium iodide (PI) staining using FC500 cytometer (Beckman-Coulter, Indianapolis, IN) following the manufacturer’s procedure (BD Pharmingen, Billerica, MA)[55]. For cell cycle analysis, cells were fixed with cold ethanol overnight and then stained before analysis with 30 μg/mL propidium iodide (Invitrogen) and 200 μg/mL RNase (Sigma-Aldrich) in 0.1 % v/v Triton X-100 (Sigma-Aldrich). Cell cycle data analysis was performed using ModFit LT software (Verity Software House, Topsham, ME).

[3] = test system: Granta-519 lymphoma cell line; test: Reducing sDMA assay (western blot of cellular sDMA) in Granta-519; format: cell-based; conditions: for sDMA signal normalized to β-Actin and DMSO control: DMSO = 100
Experimental: For western blot analysis of Cellular sDMA in Granta-519, one day before the experiment, Granta-519 cells were passaged to a density of 0.5 × 10^6 cells/ml. The next day, Granta-519 cells were spun down at 1500 rpm for 4 min, resuspended in fresh medium at 0.5E6 cells/ml and 3 mL of culture (1.5E6 cells) were seeded into a six-well plate. Eight-point, threefold serial dilutions of compound working stocks were added to cells (3 µl, 1:1000 dilution, DMSO concentration was 0.1%; final top concentration at 1 µM) and incubated for 3 days. Cells incubated with DMSO was used as vehicle control. Cells were harvested 3 days later, resuspended in 15 µL PBS, lysed in 4% SDS, and homogenized by passing through homogenizer column (Omega Biotek, Catalog #: HCR003). Total protein concentrations were determined by BCA assay (ThermoFisher Scientific, Catalog #: 23225). Lysates were mixed with 5× Laemmli buffer and boiled for 5 min. Forty micrograms of total protein was separated on SDS-PAGE gels (Bio-Rad, catalog #: 4568083, 4568043), transferred to PVDF membrane, and blocked with 5% dry milk (Bio-Rad, Catalog #: 1706404) in TBS with 0.1% v/v Tween20 (TBST) for 1 h at room temperature (RT), and incubated with primary antibodies (sDMA: Cell signaling, Catalog #: 13222, 1:3,000; β-actin: sigma, Catalog #: A2228, 1:5000) in 5% dry milk in TBST at 4 °C overnight. The next day, membranes were washed with TBST, 5 × 5 min, and incubated with HRP conjugated seconded antibody (GE Healthcare; Catalog #: NA9341 ML, NA931-1ML; 1:5000) for 2 hours at RT, followed by 5 × 5 min washes with TBST, and incubation with ECL substrates (Bio-Rad, Catalog #: 1705061, 1705062). The chemiluminescent signal was captured with Fluochem HD2 imager (Proteinsimple). SmD3me2s bands were quantified by ImageJ. Signals were normalized to β-Actin and DMSO control. IC50 values were calculated using Graphpad Prism (v9.2.0) ([Inhibitor] vs. normalized response – Variable slope).

With `CON=c1nc[nH]c2c1ccn2[C@@H]1O[C@H]([C@H](O)c2ccc(Cl)c(Cl)c2)[C@@H](O)[C@H]1O.Cl` [PRT382, (2 R,3 S,4 R,5 R)-2-[(R)-(3,4-dichlorophenyl)-hydroxy-methyl]-5-[(4Z)-4-methoxyimino-1H-pyrrolo[2,3-d]pyrimidin-7-yl]tetrahydrofuran-3,4-diol hydrochloride] the peak plasma level ([1]; 10 mg/kg oral) was 12 µM, the DNAUC ([1]; 10 mg/kg) was 1180 kg·ng·h/mL/mg and the “blood concentration at time point 0.25” value ([1]; 10 mg/kg) was 2530. The “blood concentration at time point 0.5” value ([1]; 10 mg/kg) was 3240, the “blood concentration at time point 1 h” value ([1]; 10 mg/kg) was 2973 and the “blood concentration at time point 2 h” value ([1]; 10 mg/kg) was 1733. For the same compound, the “blood concentration at time point 4 h” value ([1]; 10 mg/kg) was 908, the “blood concentration at time point 8 h” value ([1]; 10 mg/kg) was 530 and the “blood concentration at time point 12 h” value ([1]; 10 mg/kg) was 46. It also gave a blood concentration at time point 24 h ([1]; 10 mg/kg) of 0 µg/mL, a peak plasma level ([1]; 30 mg/kg oral) of 32 µM and a DNAUC ([1]; 30 mg/kg) of 763 kg·ng·h/mL/mg. The “blood concentration at time point 0.25” value ([1]; 30 mg/kg) was 3753, the “blood concentration at time point 0.5” value ([1]; 30 mg/kg) was 4560 and the “blood concentration at time point 1 h” value ([1]; 30 mg/kg) was 4613. For the same compound, the “blood concentration at time point 2 h” value ([1]; 30 mg/kg) was 2990, the “blood concentration at time point 4 h” value ([1]; 30 mg/kg) was 2027 and the “blood concentration at time point 8 h” value ([1]; 30 mg/kg) was 1350. For the same compound, the “blood concentration at time point 12 h” value ([1]; 30 mg/kg) was 138, the blood concentration at time point 24 h ([1]; 30 mg/kg) was 0 µg/mL and the peak plasma level ([1]; 100 mg/kg oral) was 75 µM. For the same compound, the DNAUC ([1]; 100 mg/kg) was 1700 kg·ng·h/mL/mg, the “blood concentration at time point 0.25” value ([1]; 100 mg/kg) was 20267 and the “blood concentration at time point 0.5” value ([1]; 100 mg/kg) was 25300. The “blood concentration at time point 1 h” value ([1]; 100 mg/kg) was 25500, the “blood concentration at time point 2 h” value ([1]; 100 mg/kg) was 21367 and the “blood concentration at time point 4 h” value ([1]; 100 mg/kg) was 16300. For the same compound, the “blood concentration at time point 8 h” value ([1]; 100 mg/kg) was 10253, the “blood concentration at time point 12 h” value ([1]; 100 mg/kg) was 1753 and the blood concentration at time point 24 h ([1]; 100 mg/kg) was 0.007 µg/mL. The AUC ([1]; 10 mg/kg) was 11.7 µg·h/mL, the AUC(0-t) ([1]; 10 mg/kg) was 11.6 µg·h/mL and the Cmax ([1]; 10 mg/kg) was 3.24 µg/mL. It also gave an MRT ([1]; 10 mg/kg) of 3.34 h, a Tmax ([1]; 10 mg/kg) of 0.5 h and a half-life ([1]; 10 mg/kg) of 1.87 h. The AUC ([1]; 30 mg/kg) was 22.9 µg·h/mL, the AUC(0-t) ([1]; 30 mg/kg) was 22.3 µg·h/mL and the Cmax ([1]; 30 mg/kg) was 4.67 µg/mL. It also gave an MRT ([1]; 30 mg/kg) of 4 h, a Tmax ([1]; 30 mg/kg) of 0.83 h and a half-life ([1]; 30 mg/kg) of 2.25 h. The AUC ([1]; 100 mg/kg) was 170 µg·h/mL, the AUC(0-t) ([1]; 100 mg/kg) was 170 µg·h/mL and the Cmax ([1]; 100 mg/kg) was 25.8 µg/mL. It also gave an MRT ([1]; 100 mg/kg) of 4.6 h, a Tmax ([1]; 100 mg/kg) of 0.67 h and a half-life ([1]; 100 mg/kg) of 1.53 h. The IC50 [2] was 0.016 µM, the “sDMA signal normalized to β-Actin and DMSO control” value (from here on “sDMA signal normalized”) ([3]; Conc. 0.000457247 µM) was 88.6989 and the “sDMA signal normalized” value ([3]; Conc. 0.00137174 µM) was 97.8569. For the same compound, the “sDMA signal normalized” value ([3]; Conc. 0.00411523 µM) was 93.6002, the “sDMA signal normalized” value ([3]; Conc. 0.0123457 µM) was 75.2291 and the “sDMA signal normalized” value ([3]; Conc. 0.037037 µM) was 39.1378. For the same compound, the “sDMA signal normalized” value ([3]; Conc. 0.111111 µM) was 15.0036, the “sDMA signal normalized” value ([3]; Conc. 0.333333 µM) was 6.086 and the “sDMA signal normalized” value ([3]; Conc. 1 µM) was 6.863. For the same compound, the IC50 ([3]; Homo sapiens, 72 h, Granta-519, 3 days) was 0.027 µM.
